Data taken from patent publication US20090221559A1 (priority 2005, published 2009).
Like-named read-outs stand apart in the source and are kept apart here.

Legend:
[1] = test system: HCV replicon RNA replication in Huh-7 luc/neo (Huh-Luc) cells; experiment: HCV replicon assay (stable replicon cell reporter assay, luciferase read-out); assay type: cell-based, HCV type 1b
Method in brief: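 Huh-7 cells stably carry a bicistronic HCV 1b NS3-NS5B subgenomic replicon with firefly luciferase and neo markers. Cells were plated with compound across a concentration range and incubated three days. Replication was measured as luciferase activity to give dose-response curves.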

[2] = molecular target: T1, HCV NS5B polymerase (His-tagged, C-terminal 21 amino acid deleted NS5B, HC-J4) (Hepatitis C virus genotype 1b, UniProt O92972); experiment: NS5b polymerase assay (biochemical RdRp assay, 3H-GTP incorporation, SPA beads); set-up: species or system HCV genotype 1b
T1 construct: The cDNA encoding NS5B amino acid 1-570 (HC-J4, genotype 1b); His tag (His6, from pET-21b) (C); made in house; host or cells: E. coli BL21 (DE3)
Method in brief: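 His-tagged C-terminal-21-aa-deleted NS5B (genotype 1b, HC-J4) at 200 nM was preincubated 15 min at RT with compound on 5′-biotinylated oligo(rG13)/poly(rC) template/primer before NTPs. Reaction with 600 nM GTP plus 0.1 μCi 3H-GTP and 5 mM MgCl2 in Tris pH 7.5 ran 2 h at 25 °C. Stopped with EDTA/SPA beads for incorporation counting.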

[3] = NS5B Polymerase Assay IC50, 200 nM enzyme, 3H-GTP incorporation, 2 h at 25° C.
[4] = Hepatitis C virus, Huh-7, 72 h, read-out: Replicon Assay EC50, Huh-Luc cells, three days incubation, luciferase activity
[5] = Hepatitis C virus, Huh-7, 72 h, read-out: Replicon Assay EC50 (μM), Huh-Luc cells, incubation of three days, luciferase activity
[6] = NS5B Polymerase Assay IC50 (μM)

T1 sequence (O92972 2417-3000, looked up, stated change not applied): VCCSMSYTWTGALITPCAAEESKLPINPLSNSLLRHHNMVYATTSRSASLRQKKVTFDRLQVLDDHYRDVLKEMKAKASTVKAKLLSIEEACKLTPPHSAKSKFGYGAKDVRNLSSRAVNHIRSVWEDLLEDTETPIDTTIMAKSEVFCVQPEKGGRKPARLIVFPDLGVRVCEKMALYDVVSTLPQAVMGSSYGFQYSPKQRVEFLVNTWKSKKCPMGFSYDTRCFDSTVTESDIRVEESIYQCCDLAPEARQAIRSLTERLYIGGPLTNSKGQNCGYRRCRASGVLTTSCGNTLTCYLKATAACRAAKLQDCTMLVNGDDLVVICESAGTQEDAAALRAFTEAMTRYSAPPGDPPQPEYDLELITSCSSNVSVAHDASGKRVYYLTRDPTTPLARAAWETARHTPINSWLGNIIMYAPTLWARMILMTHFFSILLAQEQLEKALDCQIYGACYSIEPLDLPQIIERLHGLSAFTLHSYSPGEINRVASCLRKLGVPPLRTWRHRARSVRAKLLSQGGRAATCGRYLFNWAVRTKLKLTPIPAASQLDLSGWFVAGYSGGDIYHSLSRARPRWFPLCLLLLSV

Row | Structure (SMILES) | melting point [°C] | IC50 [2, 3] [µM] | EC50 [1, 4] [µM] | also measured
1 | CC(=O)N1c2ccccc2NC2=C(C(=O)CC(C)(C)C2)C1/C(Cl)=C/c1ccccc1 (stereo not drawn) | 258 | – | – | –
2 | CC(=O)N1c2c(CNCCCN(C)C)cccc2NC2=C(C(=O)CC(C)(C)C2)C1c1ccc(Cl)cc1Cl (stereo not drawn) | 258 | – | – | –
3 | CC(=O)N1c2c(cccc2C(=O)NCCCN(C)C)NC2=C(C(=O)CC(C)(C)C2)C1c1ccc(Cl)cc1Cl (stereo not drawn) | 226 | – | – | –
4 | CC(=O)N1c2ccc(CN(C)C)cc2NC2=C(C(=O)CC(C)(C)C2)C1c1ccc(Cl)cc1Cl (stereo not drawn) | > 260 | – | – | –
5 | CC(=O)N1c2ccc(C(=O)O)cc2NC2=C(C(=O)CC(C)(C)C2)C1c1ccc(Cl)cc1Cl (stereo not drawn) | > 250 | – | – | –
6 | CC1(C)CC(=O)C2=C(C1)Nc1ccccc1N(C(=O)CC(=O)O)C2c1ccc(Cl)cc1Cl (stereo not drawn) | 200 | – | – | –
7 | CC(=O)N1c2ccc(CCCN)cc2NC2=C(C(=O)CC(C)(C)C2)C1c1ccc(Cl)cc1Cl (stereo not drawn) | 242 | – | – | –
8 | COC(=O)c1ccc2c(c1)NC1=C(C(=O)CC(C)(C)C1)C(c1ccc(Cl)cc1Cl)N2C(C)=O (stereo not drawn) | > 250 | – | – | –
9 | COC(=O)c1ccc2c(c1)N(C(C)=O)C(c1ccc(Cl)cc1Cl)C1=C(CC(C)(C)CC1=O)N2 (stereo not drawn) | > 250 | – | – | –
10 | CC(=O)N1c2c(cccc2C(=O)O)NC2=C(C(=O)CC(C)(C)C2)C1c1ccc(Cl)cc1Cl (stereo not drawn) | > 260 | – | – | –
11 | CC(=O)N1c2c(CO)cccc2NC2=C(C(=O)CC(C)(C)C2)C1c1ccc(Cl)cc1Cl (stereo not drawn) | 200 | – | – | –
12 | CC(=O)N1c2c(CNCCN3CCOCC3)cccc2NC2=C(C(=O)CC(C)(C)C2)C1c1ccc(Cl)cc1Cl (stereo not drawn) | 236 | – | – | –
13 | CC(=O)N1c2c(cccc2C(=O)NCCc2ccncc2)NC2=C(C(=O)CC(C)(C)C2)C1c1ccc(Cl)cc1Cl (stereo not drawn) | > 260 | – | – | –
14 | CC(=O)N1c2c(CNCCc3ccncc3)cccc2NC2=C(C(=O)CC(C)(C)C2)C1c1ccc(Cl)cc1Cl (stereo not drawn) | 212 | – | – | –
15 | CCCN(C)Cc1cccc2c1N(C(C)=O)C(c1ccc(Cl)cc1Cl)C1=C(CC(C)(C)CC1=O)N2 (stereo not drawn) | > 260 | – | – | –
16 | CC(=O)N1c2ccc(CN)cc2NC2=C(C(=O)CC(C)(C)C2)C1c1ccc(Cl)cc1Cl (stereo not drawn) | > 260 | – | – | –
17 | CC(=O)N1c2c(CN3CCOCC3)cccc2NC2=C(C(=O)CC(C)(C)C2)C1c1ccc(Cl)cc1Cl (stereo not drawn) | > 260 | – | – | –
18 | C=CCCC(=O)N1c2ccccc2NC2=C(C(=O)CC(C)(C)C2)C1c1ccc(Cl)cc1Cl (stereo not drawn) | 200 | – | – | –
19 | CNCc1ccc2c(c1)NC1=C(C(=O)CC(C)(C)C1)C(c1ccc(Cl)cc1Cl)N2C(C)=O (stereo not drawn) | > 260 | – | – | –
20 | CC1(C)CC(=O)C2=C(C1)Nc1cc(C(=O)O)ccc1NC2c1ccc(Cl)cc1Cl (stereo not drawn) | > 250 | – | – | –
21 | CC1(C)CC(=O)C2=C(C1)Nc1cc(CO)ccc1NC2c1ccc(Cl)cc1Cl (stereo not drawn) | 160 | – | – | –
22 | CC1(C)CC(=O)C2=C(C1)Nc1ccc(CO)cc1NC2c1ccc(Cl)cc1Cl (stereo not drawn) | 168 | – | – | –
23 | CCOC(=O)c1cccc2c1NC(c1ccc(Cl)cc1Cl)C1=C(CC(C)(C)CC1=O)N2 (stereo not drawn) | 208 | – | – | –
24 | CC1(C)CC(=O)C2=C(C1)Nc1cccc(CO)c1NC2c1ccc(Cl)cc1Cl (stereo not drawn) | > 260 | – | – | –
25 | CC(=O)N1c2ccccc2NC2=C(C(=O)CC(C)(C)C2)C1c1ccc(Cl)cc1Cl (single isomer, unassigned) [compound 38, 10-Acetyl-11-(2,4-dichlorophenyl)-2,3,4,5,10,11-hexahydro-3,3-dimethyl-1H-dibenzo[b,e][1,4]diazepin-1-one] | > 250 | 2.84 | – | EC50 ([1]; read-out: Replicon Assay EC50, Huh-Luc cells, three days incubation, luciferase activity): 23.8 µM
26 | CC(=O)N1c2ccccc2NC2=C(C(=O)CC(C)(C)C2)C1c1ccc(OCc2ccccc2)c(Cl)c1 (single isomer, unassigned) [compound 304, 10-acetyl-11-[4-benzyloxy-3-chlorophenyl]-3,3-dimethyl-2,3,4,5,10,11-hexahydro-1H-dibenzo[b,e][1,4]diazepin-1-one] | 130 | 0.46 | 7.59 | –

Row | Structure (SMILES) | melting point [°C] | IC50 [2, 3] [µM] | EC50 [1, 4] [µM] | also measured
27 | CC1(C)CC(=O)C2=C(C1)Nc1ccccc1N(C(=O)c1ccccc1)C2c1ccc(Cl)cc1Cl (stereo not drawn) [compound 45] | > 250 | 4.83 | 6.79 | –
28 | CC1(C)CC(=O)C2=C(C1)Nc1ccccc1N(C(=O)C(F)(F)F)C2c1ccc(Cl)cc1Cl (stereo not drawn) [compound 107] | > 260 | > 133 | 11.5 | –
29 | CC(=O)N1c2ccccc2NC2=C(C(=O)CC(C)(C)C2)C1c1ccc(C(F)(F)F)cc1 (stereo not drawn) [compound 120] | > 250 | > 133 | 31.8 | –
30 | CC(=O)N1c2ccccc2NC2=C(C(=O)CC(C)(C)C2)C1c1ccc(OCc2ccccc2)c(Cl)c1 (stereo not drawn) [compound 139, 10-acetyl-11-[4-benzyloxy-3-chlorophenyl]-3,3-dimethyl-2,3,4,5,10,11-hexahydro-1H-dibenzo[b,e][1,4]diazepin-1-one] | 197 | 1.01 | 2.9 | –
31 | CC1(C)CC(=O)C2=C(C1)Nc1ccccc1N(C(=O)CC#N)C2c1ccc(Cl)cc1Cl (stereo not drawn) [compound 151] | > 260 | 1.25 | 18.4 | –
32 | CC1(C)CC(=O)C2=C(C1)Nc1ccccc1N(C(=O)CCc1ccccc1)C2c1ccc(Cl)cc1Cl (stereo not drawn) [compound 152] | 242 | 24.1 | 2.5 | –
33 | CC1(C)CC(=O)C2=C(C1)Nc1ccccc1N(C(=O)c1ccco1)C2c1ccc(Cl)cc1Cl (stereo not drawn) [compound 153] | > 260 | 4.05 | 18.6 | –
34 | CC1(C)CC(=O)C2=C(C1)Nc1ccccc1N(C(=O)Cc1ccccc1)C2c1ccc(Cl)cc1Cl (stereo not drawn) [compound 154] | > 260 | 123 | 5.46 | –
35 | CC1(C)CC(=O)C2=C(C1)Nc1ccccc1N(C(=O)N1CCCCC1)C2c1ccc(Cl)cc1Cl (stereo not drawn) [compound 155] | > 260 | > 133 | – | –
36 | CC(C)NC(=O)N1c2ccccc2NC2=C(C(=O)CC(C)(C)C2)C1c1ccc(Cl)cc1Cl (stereo not drawn) [compound 156] | > 260 | 5.15 | 6.69 | –
37 | CN(C)c1ccc(NC(=O)N2c3ccccc3NC3=C(C(=O)CC(C)(C)C3)C2c2ccc(Cl)cc2Cl)cc1 (stereo not drawn) [compound 157] | 238 | 29.5 | 1.95 | –
38 | CC(=O)N1c2c(Br)cccc2NC2=C(C(=O)CC(C)(C)C2)C1c1ccc(Cl)cc1Cl (stereo not drawn) [compound 311] | > 260 | 13.3 | 4.03 | –
39 | CC(=O)N1c2c(C#N)cccc2NC2=C(C(=O)CC(C)(C)C2)C1c1ccc(Cl)cc1Cl (stereo not drawn) [compound 313] | 248 | 6.04 | 27.5 | –
40 | CC(=O)N1c2cccc(C)c2NC2=C(C(=O)CC(C)(C)C2)C1c1ccc(Cl)cc1Cl (stereo not drawn) [compound 315] | > 260 | 4.78 | 14.6 | –
41 | CC(=O)N1c2cc(C#N)ccc2NC2=C(C(=O)CC(C)(C)C2)C1c1ccc(Cl)cc1Cl (stereo not drawn) [compound 318] | > 250 | 67.1 | – | –
42 | CC(=O)N1c2ccc(C(=O)NCCN3CCOCC3)cc2NC2=C(C(=O)CC(C)(C)C2)C1c1ccc(Cl)cc1Cl (stereo not drawn) [compound 321, 10-acetyl-N-(morpholin-4-ylethyl)-11-(2,4-dichlorophenyl)-3,3-dimethyl-1-oxo-2,3,4,5,10,11-hexahydro-1H-dibenzo[b,e][1,4]diazepine-7-carboxamide] | > 260 | > 133 | 72.2 | –
43 | CC(=O)N1c2ccccc2N(C)C2=C(C(=O)CC(C)(C)C2)C1c1ccc(Cl)cc1Cl (stereo not drawn) [compound 322] | 145 | – | 44.1 | –
44 | CC(=O)N1c2ccccc2N(Cc2ccccc2)C2=C(C(=O)CC(C)(C)C2)C1c1ccc(Cl)cc1Cl (stereo not drawn) [compound 323] | 235 | 53.8 | 1.65 | –
45 | Cc1cccc2c1NC(c1ccc(Cl)cc1Cl)C1=C(CC(C)(C)CC1=O)N2 (stereo not drawn) [compound 469] | 235 | – | – | EC50 [1, 5]: 8.24 µM; IC50 [2, 6]: 32.3 µM
46 | CC1(C)CC(=O)C2=C(C1)Nc1cccc(C#N)c1NC2c1ccc(Cl)cc1Cl (stereo not drawn) [compound 470] | 225 | – | – | EC50 [1, 5]: 16.5 µM; IC50 [2, 6]: 23.3 µM
47 | Cc1cccc2c1NC1=C(C(=O)CC(C)(C)C1)C(c1ccc(Cl)cc1Cl)N2 (stereo not drawn) [compound 471] | 225 | – | – | EC50 [1, 5]: 14.7 µM; IC50 [2, 6]: > 133 µM
48 | CC1(C)CC(=O)C2=C(C1)Nc1c(N)cccc1NC2c1ccc(Cl)cc1Cl (stereo not drawn) [compound 474] | 248 | – | – | EC50 [1, 5]: 34.1 µM; IC50 [2, 6]: 1.72 µM
49 | CCCN1c2ccccc2NC2=C(C(=O)CC(C)(C)C2)C1c1ccc(Cl)cc1Cl (stereo not drawn) [compound 509, 11-(2,4-Dichlorophenyl)-2,3,4,5,10,11-hexahydro-3,3-dimethyl-10-propyl-1H-dibenzo[b,e][1,4]diazepin-1-one] | – | – | – | EC50 [1, 5]: 0.894 µM; IC50 [2, 6]: > 42.7 µM
50 | COC(=O)CN1c2ccccc2NC2=C(C(=O)CC(C)(C)C2)C1c1ccc(Cl)cc1Cl (stereo not drawn) [compound 510] | – | – | – | EC50 [1, 5]: 4.56 µM; IC50 [2, 6]: > 133 µM
51 | CC1(C)CC(=O)C2=C(C1)Nc1ccccc1N(CC(=O)O)C2c1ccc(Cl)cc1Cl (stereo not drawn) [compound 511] | – | – | – | EC50 [1, 5]: > 100 µM; IC50 [2, 6]: 1.9 µM
